# Data taken from ChEMBL document CHEMBL3046027, “In vitro and in vivo antifungal activity of synthetic pure isothiocyanates against Sclerotinia sclerotiorum” (Pest Manag Sci, 2011).
# How the values were obtained:
# Sclerotinia sclerotiorum [1] = assay: Antifungal activity against Sclerotinia sclerotiorum assessed as inhibition of germination in volatile phase at 73 umol/l measured at 20 degC after 5 days; format: functional; details: 120 h
# Sclerotinia sclerotiorum [2] = assay: In vivo antifungal Sclerotinia sclerotiorum in Pepper (Capsicum annuum L. cv. Sera Demre) assessed as inhibition of mycelial growth in volatile phase at 146 umol/L measured after 10 to 14 weeks; format: functional
# Sclerotinia sclerotiorum [3] = assay: Antifungal activity against Sclerotinia sclerotiorum assessed as inhibition of mycelial growth in contact phase at 1462 umol/l measured at 20 degC after 5 days; format: functional; details: 120 h, read-out: GI
# Sclerotinia sclerotiorum [4] = assay: Fungistatic activity in Sclerotinia sclerotiorum assessed as inhibition of mycelial growth in contact phase measured at 20 degC after 5 days; format: functional, organism-based; details: 120 h
# Sclerotinia sclerotiorum [5] = assay: Antifungal activity against Sclerotinia sclerotiorum assessed as inhibition of mycelial growth in volatile phase at 146 umol/l measured at 20 degC after 5 days; format: functional; details: 120 h, read-out: GI
# Sclerotinia sclerotiorum [6] = assay: Antifungal activity against Sclerotinia sclerotiorum assessed as inhibition of mycelial growth in volatile phase at 1024 umol/l measured at 20 degC after 5 days; format: functional; details: 120 h, read-out: GI
# Sclerotinia sclerotiorum [7] = assay: Antifungal activity against Sclerotinia sclerotiorum assessed as inhibition of mycelial growth in volatile phase at 1460 umol/l measured at 20 degC after 5 days; format: functional; details: 120 h, read-out: GI
# Sclerotinia sclerotiorum [8] = assay: Antifungal activity against Sclerotinia sclerotiorum assessed as inhibition of mycelial growth in volatile phase at 73 umol/l measured at 20 degC after 5 days; format: functional; details: 120 h, read-out: GI
# Sclerotinia sclerotiorum [9] = assay: Antifungal activity against Sclerotinia sclerotiorum assessed as inhibition of germination in volatile phase at 146 umol/l measured at 20 degC after 5 days; format: functional; details: 120 h
# Sclerotinia sclerotiorum [10] = assay: Fungistatic activity in Sclerotinia sclerotiorum assessed as inhibition of carpogenic germination in volatile phase at 73 umol/l measured at 20 degC after 5 days relative to control; format: functional; details: 120 h
# Sclerotinia sclerotiorum [11] = assay: Antifungal activity against Sclerotinia sclerotiorum assessed as inhibition of germination in volatile phase at 1462 umol/l measured at 20 degC after 5 days; format: functional; details: 120 h
# Sclerotinia sclerotiorum [12] = assay: Antifungal activity against Sclerotinia sclerotiorum assessed as inhibition of mycelial growth in contact phase at 4387 umol/l measured at 20 degC after 5 days; format: functional; details: 120 h, read-out: GI
# Sclerotinia sclerotiorum [13] = assay: Fungitoxic activity in Sclerotinia sclerotiorum assessed as inhibition of mycelial growth in volatile phase at 1024 umol/l measured at 20 degC after 5 days relative to control; format: functional; details: 120 h, read-out: GI
# Sclerotinia sclerotiorum [14] = assay: Antifungal activity against Sclerotinia sclerotiorum assessed as inhibition of mycelial growth in contact phase at 1024 umol/l measured at 20 degC after 5 days; format: functional; details: 120 h, read-out: GI
# Sclerotinia sclerotiorum [15] = assay: Antifungal activity against Sclerotinia sclerotiorum assessed as inhibition of germination in volatile phase at 731 umol/l measured at 20 degC after 5 days; format: functional; details: 120 h
# Sclerotinia sclerotiorum [16] = assay: Fungistatic activity in Sclerotinia sclerotiorum assessed as inhibition of carpogenic germination in volatile phase at 146 umol/l measured at 20 degC after 5 days relative to control; format: functional; details: 120 h
# Sclerotinia sclerotiorum [17] = assay: In vivo antifungal Sclerotinia sclerotiorum in Pepper (Capsicum annuum L. cv. Sera Demre) assessed as inhibition of mycelial growth in volatile phase at 292 umol/L measured after 10 to 14 weeks; format: functional
# Sclerotinia sclerotiorum [18] = assay: Antifungal activity against Sclerotinia sclerotiorum assessed as inhibition of germination in volatile phase at 439 umol/l measured at 20 degC after 5 days; format: functional; details: 120 h
# Sclerotinia sclerotiorum [19] = assay: Fungistatic activity in Sclerotinia sclerotiorum assessed as inhibition of mycelial growth in contact phase at 4387 umol/l measured at 20 degC after 5 days relative to control; format: functional; details: 120 h, read-out: GI
# Sclerotinia sclerotiorum [20] = assay: Fungitoxic activity in Sclerotinia sclerotiorum assessed as viability in volatile phase at 731 umol/l measured at 20 degC after 5 days relative to control; format: functional; details: 120 h, read-out: GI
# Sclerotinia sclerotiorum [21] = assay: Fungistatic activity in Sclerotinia sclerotiorum assessed as inhibition of carpogenic germination in volatile phase at 1460 umol/l measured at 20 degC after 5 days relative to control; format: functional; details: 120 h
# Sclerotinia sclerotiorum [22] = assay: Fungistatic activity in Sclerotinia sclerotiorum assessed as sclerotial viability measured at 20 degC after 5 days; format: functional, organism-based; details: 120 h
# Sclerotinia sclerotiorum [23] = assay: Fungistatic activity in Sclerotinia sclerotiorum assessed as inhibition of mycelial growth in volatile phase measured at 20 degC after 5 days; format: functional, organism-based; details: 120 h
# Sclerotinia sclerotiorum [24] = assay: Antifungal activity against Sclerotinia sclerotiorum assessed as inhibition of mycelial growth in contact phase at 1316 umol/l measured at 20 degC after 5 days; format: functional; details: 120 h, read-out: GI
# Sclerotinia sclerotiorum [25] = assay: Antifungal activity against Sclerotinia sclerotiorum assessed as inhibition of mycelial growth in volatile phase at 732 umol/l measured at 20 degC after 5 days; format: functional; details: 120 h, read-out: GI
# Sclerotinia sclerotiorum [26] = assay: Fungistatic activity in Sclerotinia sclerotiorum assessed as inhibition of mycelial growth in volatile phase at 732 umol/l measured at 20 degC after 5 days relative to control; format: functional; details: 120 h, read-out: GI
# Sclerotinia sclerotiorum [27] = assay: Fungistatic activity in Sclerotinia sclerotiorum assessed as inhibition of carpogenic germination in volatile phase at 732 umol/l measured at 20 degC after 5 days relative to control; format: functional; details: 120 h
# Sclerotinia sclerotiorum [28] = assay: Antifungal activity against Sclerotinia sclerotiorum assessed as inhibition of mycelial growth in contact phase at 2924 umol/l measured at 20 degC after 5 days; format: functional; details: 120 h, read-out: GI
structure (smiles),measurement,setting,value
CN=C=S [METHYLISOTHIOCYANATE],inhibition at 73 µM,Sclerotinia sclerotiorum [1],0%
same,inhibition in vivo at 146 µM,Sclerotinia sclerotiorum [2],55%
same,inhibition of growth at 1462 µM,Sclerotinia sclerotiorum [3],54.7%
same,EC50,Sclerotinia sclerotiorum [4],168 µM
same,inhibition of growth at 146 µM,Sclerotinia sclerotiorum [5],55.3%
same,inhibition of growth at 1024 µM,Sclerotinia sclerotiorum [6],100%
same,inhibition of growth at 1460 µM,Sclerotinia sclerotiorum [7],100%
same,inhibition of growth at 73 µM,Sclerotinia sclerotiorum [8],34.7%
same,inhibition at 146 µM,Sclerotinia sclerotiorum [9],6.7%
same,inhibition at 73 µM,Sclerotinia sclerotiorum [10],30%
same,inhibition at 1462 µM,Sclerotinia sclerotiorum [11],100%
same,inhibition of growth at 4387 µM,Sclerotinia sclerotiorum [12],100%
same,inhibition of growth at 1024 µM,Sclerotinia sclerotiorum [13],100%
same,inhibition of growth at 1024 µM,Sclerotinia sclerotiorum [14],10.8%
same,inhibition at 731 µM,Sclerotinia sclerotiorum [15],100%
same,inhibition at 146 µM,Sclerotinia sclerotiorum [16],30%
same,inhibition in vivo at 292 µM,Sclerotinia sclerotiorum [17],85%
same,inhibition at 439 µM,Sclerotinia sclerotiorum [18],66.7%
same,inhibition of growth at 4387 µM,Sclerotinia sclerotiorum [19],100%
same,inhibition of growth at 731 µM,Sclerotinia sclerotiorum [20],100%
same,inhibition at 1460 µM,Sclerotinia sclerotiorum [21],67.5%
same,EC50,Sclerotinia sclerotiorum [22],336 µM
same,EC50,Sclerotinia sclerotiorum [23],79 µM
same,inhibition of growth at 1316 µM,Sclerotinia sclerotiorum [24],18.2%
same,inhibition of growth at 732 µM,Sclerotinia sclerotiorum [25],100%
same,inhibition of growth at 732 µM,Sclerotinia sclerotiorum [26],100%
same,inhibition at 732 µM,Sclerotinia sclerotiorum [27],35%
same,inhibition of growth at 2924 µM,Sclerotinia sclerotiorum [28],81.2%
